Test results reported in patent publication US9290740B2, “Use of basic fibroblast growth factor in the de-differentiation of animal connective tissue cells” (Worcester Polytechnic Institute, priority 2008, dated 2016).
Entries after “also recorded” stand apart in the source; their conditions may differ.

Tests used:
[1] = test system: FGFR1, FGFR2, FGFR3, FGFR4 and FGF2 in adult human dermal fibroblasts; test: Expression and localization of FGF2 and FGF receptors (RT-PCR, immunocytochemistry); assay type: cell-based
Method: Adult human fibroblasts (CRL-2352, ATCC) were cultured in conditions of 37° C., 5% CO2, 5% O2 90% N2 were seeded into 24 well plates (BD Falcon) either without substrate or with 15 mm Thermanox® coverslips (Nalge Nunc) at 5,000 cells per well in medium consisting of DMEM with 4 mM fresh L-glutamine: Ham's F12 medium (50:50) supplemented with 1×TCH serum replacement (Protide Pharmaceuticals), 1×ITS-X (Invritrogen), 2% FetalClone III (Hyclone), and 4 ng/ml FGF2 (Chemicon). After 5 days, the cells were washed with DPBS w/o Ca/Mg (Mediatech) and fixed in methanol (−20° C.) for 10 min, washed with DPBS and stored in DPBS at 4° C. until use. For detection of nuclear antigens (Msx-1, Msx-2, Sox-2, Oct-4 and Nanog), enhanced nuclear membrane permeabilization was performed by incubation with 1.5 N HCl for 20 min, followed by 3 washes (5 min) in PBS. For immuno-cytochemistry, cells were washed with PBS/Tween (PBS, MediaTech with 0.05% Tween-20, Biorad) and blocked for 30 min at RT with PBS containing 0.05% Tween, 5% FBS, and 1% BSA). Primary antibodies (1:200 dilution) were added in blocking solution for 30 min at RT. Cells were washed 4× in PBS/Tween and Alexafluor-568 labeled appropriate secondary antibody diluted 1:1000 in blocking solution added for 30 min. Cells were washed 4× in PBS/Tween and stored in PBS at 4 C until image analysis. Antibodies used were: Msx-1 (SantaCruz, sc-17726), Msx-2 (Santa Cruz, sc-17729), Sox-2 (Abeam, ab15830), Oct4 (Santa Cruz, sc-8630), Nanog (abeam ab21624) FGF receptor-1 (Abgent, AP7636a), FGF Receptor-2 (Abgent, AP7636a), FGF2 (N-terminus, Santa Cruz sc-1390), FGF2 (internal, Santa Cruz sc-79), fibroblast specific protein (FSP, Sigma). Coverslips were removed and mounted onto glass slides in 80% glycerol in PBS containing 0.1% Na-Azide and sealed with nail polish. Cells were visualized using at Olympus IX81 inverted microscope with epi-fluorescence using appropriate filters (Semrock, Inc.) and phase contrast. Images were collected using a 12 bit Hamamatzu CCD camera (Model C4742-80-12AG) and images processes using Slidebook®. […]

[2] = test system: Msx-1, Msx-2, Sox-2, Oct-4 and Nanog in adult human fibroblasts (CRL-2352); test: Immunocytochemistry / western blot for stem cell transcription factors in FGF2-cultured fibroblasts; assay type: cell-based
Method: Adult human fibroblasts (CRL-2352, ATCC) were cultured in conditions of 37° C., 5% CO2, 5% O2 90% N2 were seeded into 24 well plates (BD Falcon) either without substrate or with 15 mm Thermanox® coverslips (Nalge Nunc) at 5,000 cells per well in medium consisting of DMEM with 4 mM fresh L-glutamine: Ham's F12 medium (50:50) supplemented with 1×TCH serum replacement (Protide Pharmaceuticals), 1×ITS-X (Invritrogen), 2% FetalClone III (Hyclone), and 4 ng/ml FGF2 (Chemicon). After 5 days, the cells were washed with DPBS w/o Ca/Mg (Mediatech) and fixed in methanol (−20° C.) for 10 min, washed with DPBS and stored in DPBS at 4° C. until use. For detection of nuclear antigens (Msx-1, Msx-2, Sox-2, Oct-4 and Nanog), enhanced nuclear membrane permeabilization was performed by incubation with 1.5 N HCl for 20 min, followed by 3 washes (5 min) in PBS. For immuno-cytochemistry, cells were washed with PBS/Tween (PBS, MediaTech with 0.05% Tween-20, Biorad) and blocked for 30 min at RT with PBS containing 0.05% Tween, 5% FBS, and 1% BSA). Primary antibodies (1:200 dilution) were added in blocking solution for 30 min at RT. Cells were washed 4× in PBS/Tween and Alexafluor-568 labeled appropriate secondary antibody diluted 1:1000 in blocking solution added for 30 min. Cells were washed 4× in PBS/Tween and stored in PBS at 4 C until image analysis. Antibodies used were: Msx-1 (SantaCruz, sc-17726), Msx-2 (Santa Cruz, sc-17729), Sox-2 (Abeam, ab15830), Oct4 (Santa Cruz, sc-8630), Nanog (abeam ab21624) FGF receptor-1 (Abgent, AP7636a), FGF Receptor-2 (Abgent, AP7636a), FGF2 (N-terminus, Santa Cruz sc-1390), FGF2 (internal, Santa Cruz sc-79), fibroblast specific protein (FSP, Sigma). Coverslips were removed and mounted onto glass slides in 80% glycerol in PBS containing 0.1% Na-Azide and sealed with nail polish. Cells were visualized using at Olympus IX81 inverted microscope with epi-fluorescence using appropriate filters (Semrock, Inc.) and phase contrast. Images were collected using a 12 bit Hamamatzu CCD camera (Model C4742-80-12AG) and images processes using Slidebook®.
Fibroblasts were seeded into 24 well plates (BD Falcon) with 15 mm Thermanox® coverslips (Nunc) or #2 12 mm round glass coverslips (VWR) at 5,000 cells per well in medium consisting of DMEM with 4 mM fresh L-glutamine: Ham's F12 medium (60:40) supplemented with 1×TCH serum replacement (Protide Pharmaceuticals), 1×ITS-X (Invitrogen), 2% FetalClone III (Hyclone) and cultured at 37° C., 5% CO2, 5% O2 and 90% N2. For FGF2 treatments, FGF2 (4 ng/ml) was added to the medium at the time of seeding. After 7 days, the cells were washed with DPBS w/o Ca/Mg (Mediatech) and fixed in methanol (−20° C.) for 10 min, washed with DPBS and stored in DPBS at 4 C until use. Cells were washed with PBS/Tween (PBS, MediaTech with 0.05% Tween-20, Biorad) and blocked for 30 min at RT with PBS containing 0.05% Tween, 5% FBS, and 1% BSA). Primary antibodies (2.5 μg/ml) were added in blocking solution for 30 min at RT. Cells were washed 4× in PBS/Tween and Alexafluor-568 labeled appropriate secondary antibody (4 μg/ml) in blocking solution added for 30 min. Cells were washed 4× in PBS/Tween and stored in PBS at 4° C. until image analysis. Antibodies used were: Oct4 (Abcam ab19857), Sox2 (Abcam, ab15830), Nanog (Abcam, ab21624, FGFR-1 (Abgent, AP7636a), FGFR-2 (Abgent, AP7636a), FGFR3 (Abcam ab10651), FGFR4 (Abcam ab41948), FGF2 (Santa Cruz, sc-1390 and sc-79). Coverslips were removed and mounted onto glass slides in 80% glycerol in PBS containing 0.1% Na-Azide and sealed with nail polish. Cells were visualized using an Olympus IX81 inverted microscope with epi-fluorescence using appropriate filters (Semrock, Inc.) and phase contrast. Images were collected using a 12 bit Hamamatzu CCD camera and processed using Slidebook®. […]

“FGF2: human recombinant FGF2 (Invitrogen, Chemicon or Protide), basic fibroblast growth factor” was tested, and the FGFR4 localization ([1]; FGF2 addition) was “no effect”, the “localization of FGF2, FGFR1 and FGFR2 (immunocytochemistry)” value ([1]; cells supplemented with FGF2) was “in the nucleus as well as on the cell surface; also recorded: translocated to the nucleus” and the “transcription of FGF receptors or FGF2 itself” value ([1]; regardless of the culture conditions) was “no significant effect”. The “effect on Oct4, Sox2 and Nanog protein” value ([2]; FGF2 4 ng/ml, 5% O2, 7 days) was “translation and nuclear translocation”, the “cells with stem-like nuclear localization of the transcription factors” value ([2]; FGF2, lowered oxygen, 7 days of culture) was “up to 30%” and the “localization of Msx2, Sox2 and Oct4, Thermanox coverslips” value ([2]; Thermanox coverslips, 2% serum, low O2, FGF2) was “detected in the nucleus; also recorded: nuclear localization of all three transcription factors”. The “FGF2 concentration at which Sox-2 is induced” value ([2]; culture for 2 days, preliminary dose response) was 0.5 ng/mL, the “ICC for transcription factors Oct4, Sox2 and Msx1” value ([2]; early transition of cultures grown in the presence of FGF2) was “positive” and the “localization of induced Sox2 expression” value ([2]; preliminary dose response, before change to Thermanox coverslips) was “restricted to the cytoplasm”. For the same substance, the “expression of Msx-2, Sox-2 and Oct-4, tissue culture plastic” value ([2]; tissue culture plastic, low O2, low serum, FGF2 4 ng/ml, 5 days) was “some cytoplasmic expression”.
